Experimental data taken from US20100056516A1 (priority 2006, published 2010).

Assays:
[1] = biological target: HIV integrase (Human immunodeficiency virus type 1 group M subtype B, UniProt P04585); test: integrase strand transfer assay (STA); type: biochemical; settings: integrase strand transfer; read-out: IC50 in the STA assay
[2] = test system: HXB2 virus; test: microbe, parasite or virus in culture; type: cell-based, HIV; settings: Human immunodeficiency virus 1, HXB2, HeLaP4-2, read-out: antiviral IC50 (SCIA-B)
Procedure, shortened: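 HXB2 virus used to infect HeLa P4-2 cells in a single-cycle format; inhibition of acute infection is measured.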

Row | SMILES | IC50 [1] [µM] | IC50 [2] [µM]
1 | O=c1cc(N2CCCC(CN3CCOCC3)C2)c2cccnc2n1O (stereo not drawn) [Example 144, 1-hydroxy-4-[3-(4-morpholinylmethyl)-1-piperidinyl]-1,8-naphthyridin-2(1H-one)] | < 50 | < 100
2 | COc1cccc(CNc2cc(=O)n(O)c3ncccc23)c1 [Example 145, 1-hydroxy-4-[(3-methoxybenzyl)amino]-1,8-naphthyridin-2(1H-one)] | < 50 | < 100
3 | O=c1cc(NCc2cccc(F)c2)c2cccnc2n1O [Example 146, 4-[(3-fluorobenzyl)amino]-1-hydroxy-1,8-naphthyridin-2(1H-one)] | < 50 | < 100
4 | CN1CCN(c2cc(=O)n(O)c3ncccc23)CC1=O [Example 148, 1-hydroxy-4-(4-methyl-3-oxo-1-piperazinyl)-1,8-naphthyridin-2 (1H-one)] | < 50 | < 100
5 | O=c1cc(NCc2ccc(F)cc2)c2cccnc2n1O [Example 152] | < 50 | < 100
6 | O=c1cc(NCc2cccc(CN3CCCCC3)c2)c2cccnc2n1O [Example 153] | < 50 | < 100
7 | O=c1cc(NCc2ccccc2F)c2cccnc2n1O [Example 155, 4-[(2-fluorobenzyl)amino]-1-hydroxy-1,8-naphthyridin-2(1H-one)] | < 50 | < 100
8 | CC(C1CCN(c2cc(=O)n(O)c3ncccc23)CC1)N1CCOCC1 (stereo not drawn) [Example 156, 1-hydroxy-4-{4-[1-(4-morpholinyl)ethyl]-1-piperidinyl}-1,8-naphthyridin-2(1H-one)] | < 50 | < 100
9 | CC(Nc1cc(=O)n(O)c2ncccc12)c1ccccc1 (stereo not drawn) [Example 157, 1-hydroxy-4-[(1-phenylethyl)amino]-1,8-naphthyridin-2(1H-one)] | < 50 | < 100
10 | NCc1cccc(CNc2cc(=O)n(O)c3ncccc23)c1 [Example 159, 4-{[3-(aminomethyl)benzyl]amino}-1-hydroxy-1,8-naphthyridin-2(1H-one)] | < 50 | < 100
11 | O=c1cc(NCc2ccncc2)c2cccnc2n1O [Example 160, 1-hydroxy-4-[(4-pyridinylmethyl)amino]-1,8-naphthyridin-2 (1H-one)] | < 50 | < 100
12 | O=c1cc(NCCN2CCOCC2)c2cccnc2n1O [Example 161] | < 50 | < 100
13 | O=c1cc(NCc2cccnc2)c2cccnc2n1O [Example 162, 1-hydroxy-4-[(3-pyrindinylmethyl)amino]-1,8-naphthyridin-2 (1H-one)] | < 50 | < 100
14 | CCOC(=O)CN1CCN(c2cc(=O)n(O)c3ncccc23)CC1 [Example 164, ethyl[4-(1-hydroxy-2-oxo-1,2-dihydro-1,8-naphthyridin-4-yl)-1-piperazinyl]acetate] | < 50 | < 100
15 | CC1CCN(Cc2cccc(CNc3cc(=O)n(O)c4ncccc34)c2)CC1 [Example 165, 1-hydroxy-4-({3-[(4-methyl-1-piperidinyl)methyl]benzyl}amino)-1,8-naphthyridin-2 (1H-one)] | < 50 | < 100
16 | O=c1cc(NC(CN2CCCCC2)c2ccccc2)c2cccnc2n1O (stereo not drawn) [Example 166, 1-hydroxy-4-{[1-phenyl-2-(1-piperidinyl)ethyl]amino}-1,8-naphthyridin-2 (1H-one)] | < 50 | < 100
17 | O=c1cc(NCc2cnc(-c3ccccc3)[nH]2)c2cccnc2n1O [Example 167, 1-hydroxy-4-{[(2-phenyl-1-imidazole-5-yl)methyl]amino}-1,8-naphthyridin-2 (1H-one)] | < 50 | < 100
18 | O=C1N[C@H]2CCCC[C@@H]2Nc2c1c(=O)n(O)c1ncccc21 [Example 169, (8aS, 12aS)-5-hydroxy-8,8a,9,10,11,12,12a,13-octahydro-5H-[1,8]naphthyridino[4,3-b][1,5]benzodiazepine-6,7-dione] | < 50 | < 100
